Columns and labels:
[1] = tested on: isovaleric acid; experiment: Malodor Reduction Test (cross-adaptation, Labeled Magnitude Scale); assay type: in vivo; conditions: Homo sapiens, inhaled or nasal; 1% (v/v) test substance in diethylphthalate sniffed before 56 ppm aqueous isovaleric acid; perceived intensity on LMS
Protocol: a) Malodor Reduction Test
Each subject's sense of smell was tested using a smell identification test and an isovaleric acid threshold test. To pass the smell ID test the subject had to correctly identify the aromas of peach, spearmint, cinnamon, lime, pineapple and clove. To pass the isovaleric acid threshold test subjects had to detect the odor of isovaleric acid in a one part-per-million (1 ppm weight/volume) aqueous isovaleric acid solution. This is above the 0.12 ppm threshold for a person with a normal sense of smell and below the 5.0 ppm threshold for a person with a specific anosmia to isovaleric acid (Amoore 1977). The use of an odor ID and a threshold test to identify subjects with a normal sense of smell is standard practice, (Cain, Gent et al. 1983).
The target malodor, isovaleric acid, was presented to the subject in a 60 mL, wide mouth amber, screw cap jar. The concentration of isovaleric acid in water that gave an odor intensity of strong or higher on the Labeled Magnitude Scale was 56 parts-per-million (weight/volume). Five milliliters of a 1% (v/v) solution of the test substance in diethylphthalate (DEP) presented in a 20 ml glass vial were used to evaluate the blocker candidate. The labeled the Labeled Magnitude Scale (LMS, FIG. 1) was developed for the quantitative measurement of taste, irritation and odor intensities (Green, Shaffer et al. 1993; Green, Dalton et al. 1996).
Evaluation of a sample for malodor blocking was as follows: a) The subject sniffed the isovaleric acid (target) with both nostrils and scored its intensity using the Labeled Magnitude Scale (LMS), b) The subject waited one minute, c) the subject sniffed the candidate compound twice with the left and then twice with the right nostril, d) the subject sniffed the isovaleric acid target sample within 20 seconds with both nostrils and scored its odor using the LMS, and e) the subject waited for two minutes before proceeding to the next test substance.
The percent malodor reduction (% MOR) was calculated using the following formula:
% MOR=[1−(IVAInt after CA/IVAINT before CA)]×100 where: IVA isovaleric acid
The ratio in this equation goes from zero (complete blocking) to one (no blocking). The % malodor reduction moves in the opposite direction and goes from 100% for complete blocking to 0% for no blocking.
Tables 1, 2, and 3 present the percent malodor reduction for some low molecular weight acetals, alcohols and esters respectively. In each of these tables the standard error of the mean is the standard deviation of the mean divided by the square root of the number of subjects used for the evaluation.

[2] = tested on: isovaleric acid; experiment: Deodorant stick containing 1% malodor reduction compound, sniff test; assay type: in vivo, human; conditions: compound at 1% by weight of deodorant stick; stick sniffed twice before 56 ppm aqueous isovaleric acid
From the text: A conventional deodorant stick composition, for example one with the following composition:
is modified by the addition of compound having a malodor reduction value of 80% or more as measured by the malodor reduction test presented in Example 1 in an amount such that it accounts for 1% by weight of the deodorant stick. […] Examples of effective compounds are: 2-Isobutyl-[1,3]dioxane, 2-Isobutyl-4,5-dimethyl-[1,3]dioxolane, 2-Isobutyl-4-methyl-[1,3]dioxane, 2-Isobutyl-4-methyl-[1,3]dioxolane, 1,1-Dimethoxy-3-methyl-butane, 2-lsobutyl-[1,3]dioxolane, 2-(2-Methyl-cyclopropyl)-[1,3]dioxolane, 2-Isobutyl-5-methyl-[1,3]dioxane, 2-Methylcyclopropane methanol, Ethyl isovalerate, Methyl isovalerate, 2-Methyl-cyclopropanecarboxylic acid methyl ester, n-Propyl isovalerate, and 2-Methyl-cyclopropanecarboxylic acid ethyl ester.

Compound	inhibition in vivo at 1 % v/v [1]	block of the perception of isovaleric acid by deodorant stick [2]
CCOC(CC(C)C)OCC [1,1-Diethoxy-3-methyl-butane, 1,1-Diethoxy-3-methyl-butane]	78%	–
COC(CC(C)C)OC [1,1-Dimethoxy-3-methyl-butane, 1,1-Dimethoxy-3-methyl-butane]	87%	completely block
CC1(CCO)CC1 [2-(1-Methyl-cyclopropyl)-ethanol, 2-(1-Methyl-cyclopropyl)-ethanol]	72%	–
CC1CC1C1OCCO1 (stereo not drawn) [2-(2-Methyl-cyclopropyl)-[1,3]dioxolane, 2-(2-Methyl-cyclopropyl)-[1,3]dioxolane]	85%	completely block
CC1CC1CCO (stereo not drawn) [2-(2-Methyl-cyclopropyl)-ethanol, 2-(2-Methyl-cyclopropyl)-ethanol]	77%	–
OCCC1CC1 [2-Cyclopropylethanol]	74%	–
CC(C)CC1OC(C)C(C)O1 (stereo not drawn) [2-Isobutyl-4,5-dimethyl-[1,3]dioxolane, 2-Isobutyl-4,5-dimethyl-[1,3]dioxolane]	89%	completely block
CC(C)CC1OCCC(C)O1 (stereo not drawn) [2-Isobutyl-4-methyl-[1,3]dioxane, 2-Isobutyl-4-methyl-[1,3]dioxane]	92%	completely block
CC(C)CC1OCC(C)O1 (stereo not drawn) [2-Isobutyl-4-methyl-[1,3]dioxolane, 2-Isobutyl-4-methyl-[1,3]dioxolane]	89%	completely block
CC(C)CC1OCC(C)CO1 (stereo not drawn) [2-Isobutyl-5-methyl-[1,3]dioxane, 2-Isobutyl-5-methyl-[1,3]dioxane]	80%	completely block
CC(C)CC1OCCCO1 [2-Isobutyl-[1,3]dioxane]	97%	completely block
CC(C)CC1OCCO1 [2-Isobutyl-[1,3]dioxolane]	87%	completely block
CCOC(=O)C1CC1C (stereo not drawn) [2-Methyl-cyclopropanecarboxylic acid ethyl ester]	81%	completely block
CC(C)OC(=O)C1CC1C (stereo not drawn) [2-Methyl-cyclopropanecarboxylic acid isopropyl ester]	68%	–
COC(=O)C1CC1C (stereo not drawn) [2-Methyl-cyclopropanecarboxylic acid methyl ester]	89%	completely block
CC1CC1CO (stereo not drawn) [2-Methylcyclopropane methanol]	85%	completely block
CCC1COC(CC(C)C)O1 (stereo not drawn) [4-Ethyl-2-isobutyl-[1,3]dioxolane, 4-Ethyl-2-isobutyl-[1,3]dioxolane]	78%	–
CCOC(=O)CC(C)C [Ethyl isovalerate]	94%	completely block
CC(C)CCO [Isoamyl Alcohol]	73%	–
CC(=O)OCCC(C)C [Isoamylacetate]	67%	–
CC(C)CC(=O)OC(C)C [Isopropyl isovalerate]	74%	–
COC(=O)CC(C)C [Methyl isovalerate]	–	completely block
CCCOC(=O)CC(C)C [n-Propyl isovalerate]	83%	completely block

— patent US20030089885A1, “Use of low molecular weight acetal, alcohol, acylated alcohol and ester compounds to block or reduce odor of carboxylic acids” (Senomyx, Inc., priority 2001, published 2003)
